Target: BRD4(BD1) (Homo sapiens (Human), UniProt O60885)
Assay: In vitro enzyme inhibition assay (BRD4 AlphaScreen)
Format: binding
Experimental: His-tagged BRD4 was cloned, expressed and purified to homogeneity. […] BRD4 binding and inhibition was assessed by monitoring the interaction of biotinylated H4-tetraacetyl peptide (AnaSpec, H4K5/8/12/16(Ac), biotin-labeled) with the target using the AlphaScreen technology (Life Technologies). […] After 20 min incubation at room temp, Alpha streptavidin donor beads and Nickel Chelate acceptor beads were added to a final concentration of 5 μg/mL.
The ability of the compounds disclosed herein to inhibit BRD4 activity was quantified and the respective IC50 value was determined.

[1] = in vitro enzyme inhibition assay

| SMILES | IC50 (class symbols A/B/C) | IC50 [1] |
| --- | --- | --- |
| Cc1cc(=O)n(C)cc1-c1cccc(NS(C)(=O)=O)c1 [Example 95, N-[3-(1,4-dimethyl-6-oxopyridin-3-yl)phenyl]methanesulfonamide] | 500 to 5000 nM | – |
| Cc1cc(-c2cccc(NS(C)(=O)=O)c2)cn(C)c1=O [Example 96, N-[3-(1,5-dimethyl-6-oxopyridin-3-yl)phenyl]methanesulfonamide] | 500 to 5000 nM | – |
| Cc1c(-c2cccc(NS(C)(=O)=O)c2)cn(C)c(=O)c1C [Example 97, N-[3-(1,4,5-trimethyl-6-oxopyridin-3-yl)phenyl]methanesulfonamide] | 500 to 5000 nM | – |
| Cn1cc(-c2cccc(S(C)(=O)=O)c2)nc(N)c1=O [Example 104, 3-amino-1-methyl-5-(3-methylsulfonylphenyl)pyrazin-2-one] | > 5000 nM | – |
| CCS(=O)(=O)c1cccc(-c2cn(C)c(=O)c(N)n2)c1 [Example 105, 3-amino-5-(3-ethylsulfonylphenyl)-1-methylpyrazin-2-one] | > 5000 nM | – |
| COc1ccc(-c2cn(C)c(=O)c(N)n2)cc1NS(C)(=O)=O [Example 106, N-[5-(6-amino-4-methyl-5-oxopyrazin-2-yl)-2-methoxyphenyl]methanesulfonamide] | > 5000 nM | – |
| Cn1cc(-c2cccc(S(C)(=O)=O)c2)cc(N)c1=O [Example 107, 3-amino-1-methyl-5-(3-methylsulfonylphenyl)pyridin-2-one] | > 5000 nM | – |
| CCS(=O)(=O)c1cccc(-c2cc(N)c(=O)n(C)c2)c1 [Example 108, 3-amino-5-(3-ethylsulfonylphenyl)-1-methylpyridin-2-one] | > 5000 nM | – |
| CCNc1cc(-c2ccc(OC)c(NS(C)(=O)=O)c2)cn(C)c1=O [Example 111, N-[5-[5-(ethylamino)-1-methyl-6-oxopyridin-3-yl]-2-methoxyphenyl]methanesulfonamide] | 500 to 5000 nM | – |
| COc1ccc(-c2cc(NCC3CC3)c(=O)n(C)c2)cc1NS(C)(=O)=O [Example 112, N-[5-[5-(cyclopropylmethylamino)-1-methyl-6-oxopyridin-3-yl]-2-methoxyphenyl]methanesulfonamide] | 500 to 5000 nM | – |
| CCN(CC)c1cc(-c2ccc(OC)c(NS(C)(=O)=O)c2)cn(C)c1=O [Example 114, N-[5-[5-(diethylamino)-1-methyl-6-oxopyridin-3-yl]-2-methoxyphenyl]methanesulfonamide] | 500 to 5000 nM | – |
| CCNS(=O)(=O)c1cccc(-c2cn(C)c(=O)c3ccncc23)c1 [Example 124, N-ethyl-3-(2-methyl-1-oxo-2,6-naphthyridin-4-yl) benzenesulfonamide] | 500 to 5000 nM | – |
| Cn1cc(-c2cccc(NS(C)(=O)=O)c2)c2cnccc2c1=O [Example 125, N-[3-(2-methyl-1-oxo-2,6-naphthyridin-4-yl)phenyl] methanesulfonamide] | 500 to 5000 nM | – |
| CCS(=O)(=O)c1cccc(-c2cn(C)c(=O)c3ccncc23)c1 [Example 126, 4-(3-ethylsulfonylphenyl)-2-methyl-2,6-naphthyridin-1-one] | > 5000 nM | – |
| Cn1cc(-c2cccc(S(C)(=O)=O)c2)n2cncc2c1=O [Example 131, 7-methyl-5-(3-methylsulfonylphenyl)imidazo[1,5-a]pyrazin-8-one] | > 5000 nM | – |
| CCS(=O)(=O)c1cccc(-c2cn(C)c(=O)c3cncn23)c1 [Example 133, 5-(3-ethylsulfonylphenyl)-7-methylimidazo[1,5-a]pyrazin-8-one] | > 5000 nM | – |
| Cc1cc(=O)n(C)nc1-c1cc(S(C)(=O)=O)ccc1OCC1CC1 [Example 137, 6-[2-(cyclopropylmethoxy)-5-methylsulfonylphenyl]-2,5-dimethylpyridazin-3-one] | 500 to 5000 nM | – |
| [2H]C([2H])([2H])n1cc(-c2cc(NS(=O)(=O)CC)ccc2Oc2ccc(F)cc2F)ccc1=O [Example 141, N-{4-(2,4-difluorophenoxy)-3-[1-(^2H3)methyl-6-oxopyridin-3-yl]phenyl}ethanesulfonamide] | – | < 500 nM |
| CCS(=O)(=O)Nc1ccc(Oc2ccc(F)cc2F)c(-c2cn(C)c(=O)c3c2CNCC3)c1 [Example 142, N-[4-(2,4-difluorophenoxy)-3-(2-methyl-1-oxo-5,6,7,8-tetrahydro-2,6-naphthyridin-4-yl)phenyl]ethanesulfonamide] | – | 500 to 5000 nM |
| Cn1cc(-c2nc(S(C)(=O)=O)ncc2Oc2ccc(F)cc2F)c2ccccc2c1=O [Example 151, 4-[5-(2,4-difluorophenoxy)-2-methylsulfonylpyrimidin-4-yl]-2-methylisoquinolin-1-one] | – | < 500 nM |
| Cn1cc(-c2nc(N3CCCS3(=O)=O)ncc2OCC2CC2)c2ccccc2c1=O [Example 156, 4-[5-(cyclopropylmethoxy)-2-(1,1-dioxo-1,2-thiazolidin-2-yl)pyrimidin-4-yl]-2-methylisoquinolin-1-one] | – | < 500 nM |

| SMILES | IC50 (class symbols A/B/C) | IC50 [1] |
| --- | --- | --- |
| Cn1cc(-c2nc(N3CCCS3(=O)=O)ncc2Oc2ccc(F)cc2F)c2ccccc2c1=O [Example 171, 4-[5-(2,4-difluorophenoxy)-2-(1,1-dioxo-1,2-thiazolidin-2-yl)pyrimidin-4-yl]-2-methylisoquinolin-1-one] | – | < 500 nM |
| CCOc1ccc(S(C)(=O)=O)cc1-c1cn(C)c(=O)c2c1CCCC2 [Example 216, 4-(2-ethoxy-5-methylsulfonylphenyl)-2-methyl-5,6,7,8-tetrahydroisoquinolin-1-one] | – | < 500 nM |
| Cn1cc(-c2cc(S(C)(=O)=O)ccc2OCC2CC2)c2ncncc2c1=O [Example 231, 8-[2-(cyclopropylmethoxy)-5-methylsulfonylphenyl]-6-methylpyrido[4,3-d]pyrimidin-5-one] | – | 500 to 5000 nM |
| CCS(=O)(=O)c1ccc(OCC2CC2)c(-c2cn(C)c(=O)c3cncnc23)c1 [Example 232, 8-[2-(cyclopropylmethoxy)-5-ethylsulfonylphenyl]-6-methylpyrido[4,3-d]pyrimidin-5-one] | – | < 500 nM |
| Cn1cc(-c2cc(S(C)(=O)=O)ccc2Oc2ccc(F)cc2F)c2ncncc2c1=O [Example 233, 8-[2-(2,4-difluorophenoxy)-5-methylsulfonylphenyl]-6-methylpyrido[4,3-d]pyrimidin-5-one] | – | 500 to 5000 nM |
| CCS(=O)(=O)c1ccc(Oc2ccc(F)cc2F)c(-c2cn(C)c(=O)c3cncnc23)c1 [Example 234, 8-[2-(2,4-difluorophenoxy)-5-ethylsulfonylphenyl]-6-methylpyrido[4,3-d]pyrimidin-5-one] | – | 500 to 5000 nM |
| Cn1cc(-c2cc(S(C)(=O)=O)ccc2OCC2CC2)c2ocnc2c1=O [Example 237, 7-[2-(cyclopropylmethoxy)-5-methylsulfonylphenyl]-5-methyl-[1,3]oxazolo[4,5-c]pyridin-4-one] | – | < 500 nM |
| Cn1cc(-c2cc(CS(C)(=O)=O)ccc2OCC(F)(F)F)c2ocnc2c1=O [Example 239, 5-methyl-7-[5-(methylsulfonylmethyl)-2-(2,2,2-trifluoroethoxy)phenyl]-[1,3]oxazolo[4,5-c]pyridin-4-one] | – | < 500 nM |
| CC(C)c1cc(-c2nc(S(C)(=O)=O)ncc2Oc2ccc(F)cc2F)cn(C)c1=O [Example 273, 5-[5-(2,4-difluorophenoxy)-2-methylsulfonylpyrimidin-4-yl]-1-methyl-3-propan-2-ylpyridin-2-one] | – | 500 to 5000 nM |
| Cn1cc(-c2cc(NS(C)(=O)=O)ccc2Oc2ccc(F)cc2F)cc(N2CCCC2)c1=O [Example 281, N-[4-(2,4-difluorophenoxy)-3-(1-methyl-6-oxo-5-pyrrolidin-1-ylpyridin-3-yl)phenyl]methanesulfonamide] | – | 500 to 5000 nM |
| CCS(=O)(=O)c1ccc(OCC2CC2)c(-c2cc(N3CCCC3)c(=O)n(C)c2)c1 [Example 282, 5-[2-(cyclopropylmethoxy)-5-ethylsulfonylphenyl]-1-methyl-3-pyrrolidin-1-ylpyridin-2-one] | – | 500 to 5000 nM |
| C#Cc1cc(-c2cc(S(C)(=O)=O)ccc2OCC2CC2)cn(C)c1=O [Example 285, 5-[2-(cyclopropylmethoxy)-5-methylsulfonylphenyl]-3-ethynyl-1-methylpyridin-2-one] | – | 500 to 5000 nM |
| CCCCn1cc(-c2nc(NS(C)(=O)=O)ncc2Oc2ccc(F)cc2F)cc(C)c1=O [Example 296, N-[4-(1-butyl-5-methyl-6-oxopyridin-3-yl)-5-(2,4-difluorophenoxy)pyrimidin-2-yl]methanesulfonamide] | – | < 500 nM |
| CCCCn1cc(-c2nc(NS(=O)(=O)CC)ncc2Oc2ccc(F)cc2F)cc(C)c1=O [Example 297, N-[4-(1-butyl-5-methyl-6-oxopyridin-3-yl)-5-(2,4-difluorophenoxy)pyrimidin-2-yl]ethanesulfonamide] | – | < 500 nM |
| Cc1cc(-c2nc(NS(C)(=O)=O)ncc2Oc2ccc(F)cc2F)cn(CC2CCC2)c1=O [Example 298, N-[4-[1-(cyclobutylmethyl)-5-methyl-6-oxopyridin-3-yl]-5-(2,4-difluorophenoxy)pyrimidin-2-yl]methanesulfonamide] | – | 500 to 5000 nM |
| CCS(=O)(=O)Nc1ncc(Oc2ccc(F)cc2F)c(-c2cc(C)c(=O)n(CC3CCC3)c2)n1 [Example 299, N-[4-[1-(cyclobutylmethyl)-5-methyl-6-oxopyridin-3-yl]-5-(2,4-difluorophenoxy)pyrimidin-2-yl]ethanesulfonamide] | – | 500 to 5000 nM |
| CCc1cnc(NS(=O)(=O)CC)nc1-c1cn(C)c(=O)c2ccccc12 [Example 300, N-[5-ethyl-4-(2-methyl-1-oxoisoquinolin-4-yl)pyrimidin-2-yl]ethanesulfonamide] | – | < 500 nM |
| CCCCc1cnc(S(C)(=O)=O)nc1-c1cn(C)c(=O)c2ccccc12 [Example 304, 4-(5-butyl-2-methylsulfonyl-pyrimidin-4-yl)-2-methylisoquinolin-1-one] | – | < 500 nM |
| CCCCc1cnc(S(C)(=O)=O)nc1-c1cc(C)c(=O)n(C)c1 [Example 305, 5-(5-butyl-2-methylsulfonylpyrimidin-4-yl)-1,3-dimethylpyridin-2-one] | – | < 500 nM |
| CCCc1cnc(NS(=O)(=O)CC)nc1-c1cn(C)c(=O)c2ccccc12 [Example 306, N-[4-(2-methyl-1-oxoisoquinolin-4-yl)-5-propylpyrimidin-2-yl] ethanesulfonamide] | – | < 500 nM |
